In patent US5976875A, “Diacylglycerol kinase isoforms epsilon and zeta and methods of use thereof” (priority 1997, dated 1999):
Where two headings read alike, the source gives them in different places. Blank lines part the entries; values can stand above or below the compound they belong to.

Key:
[1] = target: T1, DGK.zeta. (Homo sapiens, UniProt Q13574); experiment: DAG kinase assay, homogenates of DGK.zeta.-transfected COS-7 cells; type: biochemical; details: for nmol phosphatidic acid/mg/h (DAG substrate specificity of DGK.zeta.): each diacylglycerol used as substrate, Table I
T1 construct: The DGK.zeta. cDNA was expressed in pcDNA 1/AMP (Invitrogen) in the foward orientation; expressed in transfected cells; host or cells: COS-7
Procedure: (§1) COS-7 Transfection--The DGK.zeta. cDNA was expressed in pcDNA 1/AMP (Invitrogen) in the foward orientation. Each p35 dish containing COS-7 cells at 60-80% confluence was transfected with 1 μg of plasmid DNA and 5 μl of LipofectAMINE according to manufacturer specifications (Life Technologies Inc.). The cells were harvested by washing with ice-cold Hanks' balanced salt solution (Ca^2+ - and […] -free) and were scraped into resuspension buffer (20 mM Tris-HCl, pH 7.4, 0.25 M sucrose, 1 mM EDTA, 4 mM EGTA, 1 mM dithiothreitol, 1 mM pheylmethylsulfonyl fluoride, 20 μg/ml each leupeptin, pepstain, aprotinin, and soybean trypsin inhibitor) 48 h following transfection. All homogenates were frozen on dry ice and stored at -70° C. until assayed.
(§2) DAG Kinase Assay--Cell homogenates were sonicated twice with 5 watts for 5 at 4° C. The protein concentration of each cell homogenate was measured following trichloracetic acid precipitation utilizing the BCA protein assay reagent (Pierce). Each assay contained 50 mM MOPS, pH 7.2, 100 mM NaCl, 20 mM MgCl2, 1 mM EGTA, 1 mM dithiothreitol, 2 mM 1,2-dieleoyl-an-glycerol, 3.5 mM phosphatidylserine, 75 mM octyl-β-glucopyranoside, 500 μM [γ^32 ]ATP, and 0-20 μg of cell homogenate in a volume of 200 μl. For substrate specificity experiments, various diacylglycerol species were substituted for 1,2-dioleoyl-an-glycerol. The reactions were initiated by the addition of ATP (20-30 μCi/μmol), were incubated for 10 min. At 24° C., and were terminated by the addition of 200 μl of 1% perchloric acid. Then, to each tube, we added 1.0 ml of MeOH, 1.0 ml of […], 500 μl of 1% perchloric acid, and 50 μg of phosphatidic acid, vortexed them well, and centrifuged them for 10 min at 400×g. The remaining lower phase was dried under N2 and resuspended in 100 μl of 9:1 CHCl3 /MeOH. Fifty μl of each sample were counted directly by liquid acintillation spectrometry, and the remainder was applied to a 20×20 cm Silica 60A thin layer chromatography plate (Whatman). […] The region containing phosphatidic acid (as indicated by radiolabeled standards) and the remaining areas of each lane were scraped separately, and the radioactivity was estimated by liquid scintillation spectrometry. The amount of phosphatidic acid formed per reaction was calculated as [2(direct count)(PA cpm)(total lane cpm)]×[mole ATP/cpm]. R59959 was dissolved in dimethyl sulfoxide and added to relevant enzymatic reactions just prior to the addition of ATP.

[2] = target: T2, DGKε (Homo sapiens, UniProt P52429); experiment: octyl glucoside/PS mixed-micelle assay of DGK activity, homogenates of DGKε-transfected COS-7 cells; type: biochemical; details: for inhibition of DGKε activity: 100 μm inhibitor, homogenates from transfected cells
T2 construct: a PCR product of the DGKε cDNA lacking the 3'-untranslated region and part of the 5'-untranslated region was amplified; expressed in transfected cells; host or cells: COS-7
T2 sequence (P52429 1-567): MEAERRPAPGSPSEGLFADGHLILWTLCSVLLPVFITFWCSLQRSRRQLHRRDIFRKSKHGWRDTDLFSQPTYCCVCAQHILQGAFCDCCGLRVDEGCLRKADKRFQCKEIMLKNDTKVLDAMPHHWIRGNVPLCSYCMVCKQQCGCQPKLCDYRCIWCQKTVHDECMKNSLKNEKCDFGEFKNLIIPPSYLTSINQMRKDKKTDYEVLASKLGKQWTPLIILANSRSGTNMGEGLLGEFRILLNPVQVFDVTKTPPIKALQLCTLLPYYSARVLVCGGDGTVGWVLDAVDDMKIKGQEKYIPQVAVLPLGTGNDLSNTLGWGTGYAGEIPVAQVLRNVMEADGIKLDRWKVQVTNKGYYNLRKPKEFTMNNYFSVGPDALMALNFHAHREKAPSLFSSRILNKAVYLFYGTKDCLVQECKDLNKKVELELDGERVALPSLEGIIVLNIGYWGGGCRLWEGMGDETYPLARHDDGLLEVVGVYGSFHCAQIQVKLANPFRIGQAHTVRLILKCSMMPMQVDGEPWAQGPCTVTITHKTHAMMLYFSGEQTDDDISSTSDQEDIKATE
Procedure: COS-7 Transfection and Assay of DGK Activity--COS-7 transfection was carried out using LipofectAMINE reagent (Life Technologies, Inc.), and all steps were followed by the protocol provided by the manufacturer. After 2.5 days, the cells were harvested and lysed by sonication (twice with 5 watts for 5 s at 4° C.) in the lysis buffer (0.1 ml/35 mm well) containing 20 mm Tris-HCL, pH 7.4, 0.25 m sucrose, 1 mm EDTA, 4 mm EGTA, 1 mm dithiothreitol, 1 mm phenylmethylsulfonyl fluoride, a 20 μg/ml concentration of each: leupeptin, pepstatin, aprotinin, and soybean trypsin inhibitor. Kai, M., Sakane, F., Imai, S., Wada, I., and Kanoh, H. (1994) J. Biol. Chem. 269, 18492-18498. The protein concentration of the cell homogenate was determined with the BCA protein assay reagent (Pierce). In two experiments, the homogenate was separated into soluble and membrane-bound fractions by centrifugation at 100,000×g for 60 min. (4° C.). The pellet was resuspended in lysis buffer, and both fractions were assayed for DGK activity.
Since the full-length cDNA of DGKε could not be expressed in COS-7 cells, a PCR product of the DGKε cDNA lacking the 3'-untranslated region and part of the 5'-untranslated region was amplified and cloned into pcDNA/Neo (Invitrogen). The forward primer (SEQ ID NO: 10):
The octyl glucoside/PS mixed-micelle assay of DGK activity was performed as described. Walsh, J. P., Suen, R., Lemaitre, R. N., and Glomset, J. A. (1994) J. Biol. Chem. 269, 21155-21164. In brief, the assay mixture contained 50 mm MOPS, pH 7.2, 100 mm NaCl, 20 mm MgCl2, 1 mm EGTA, 1 mm dithoiothreitol, 2 mm discylglycerol, 3.5 mm phosphatidylserine, 75 mm octyl-β-glucopyranoside, 500 μm [γ-^32 P] ATP, and 20 μg of cellular protein in a volume of 200 μl. The reaction was initiated by the addition of [γ-^32 P] ATP (20-30 μCi/μmol) and processed for 10 min at 24° C. […] The amount of phosphatidic acid formed per reaction was calculated by dividing the radioactivity in phosphatidic acid by the specific radioactivity of the ATP in the reaction.

[3] = system: protein kinase M (PKM), catalytic fragment of mixed rat brain PKC isozymes; experiment: Phosphorylation of peptides by PKM (kinetics); type: biochemical; details: for Km: 10 minute reaction, 30° C., read-out: Km as substrate for PKM
Procedure: Phosphorylation of peptides and proteins--Peptides were phosphorylated by the purified catalytic fragment of mixed rat brain PKC isozymes (protein kinase M; PKM). In all cases involving kinetic measurements, the peptides were phosphorylated by PKM (1:120 dilution of frozen stock solution) at 30° C. All reactions were performed in the linear range of peptide phosphorylation, in an assay mixture containing 40 mM Hepes (pH 7.4), 0.25 mM EGTA, 12.5 mM MgCl2, 75 μM y-[^32 P]ATP, and various concentrations of peptides. In the peptide experiments, the reactions were stopped after 10 minutes by the addition of 1/5 vol of 5×SDS sample buffer, boiled for 5 minutes and then subjected to electrophoresis on 20% acrylamide gels. After the gels were dried, the phosphorylated peptides were localized by autoradiography, excised from the gel, and subjected to Cerenkov scintillation counting.

[4] = system: DGK.zeta.; experiment: DAG kinase assay, homogenates of DGK.zeta.-transfected COS-7 cells; type: biochemical, human
Procedure: as §1, §2

T1 sequence (Q13574 whole entry): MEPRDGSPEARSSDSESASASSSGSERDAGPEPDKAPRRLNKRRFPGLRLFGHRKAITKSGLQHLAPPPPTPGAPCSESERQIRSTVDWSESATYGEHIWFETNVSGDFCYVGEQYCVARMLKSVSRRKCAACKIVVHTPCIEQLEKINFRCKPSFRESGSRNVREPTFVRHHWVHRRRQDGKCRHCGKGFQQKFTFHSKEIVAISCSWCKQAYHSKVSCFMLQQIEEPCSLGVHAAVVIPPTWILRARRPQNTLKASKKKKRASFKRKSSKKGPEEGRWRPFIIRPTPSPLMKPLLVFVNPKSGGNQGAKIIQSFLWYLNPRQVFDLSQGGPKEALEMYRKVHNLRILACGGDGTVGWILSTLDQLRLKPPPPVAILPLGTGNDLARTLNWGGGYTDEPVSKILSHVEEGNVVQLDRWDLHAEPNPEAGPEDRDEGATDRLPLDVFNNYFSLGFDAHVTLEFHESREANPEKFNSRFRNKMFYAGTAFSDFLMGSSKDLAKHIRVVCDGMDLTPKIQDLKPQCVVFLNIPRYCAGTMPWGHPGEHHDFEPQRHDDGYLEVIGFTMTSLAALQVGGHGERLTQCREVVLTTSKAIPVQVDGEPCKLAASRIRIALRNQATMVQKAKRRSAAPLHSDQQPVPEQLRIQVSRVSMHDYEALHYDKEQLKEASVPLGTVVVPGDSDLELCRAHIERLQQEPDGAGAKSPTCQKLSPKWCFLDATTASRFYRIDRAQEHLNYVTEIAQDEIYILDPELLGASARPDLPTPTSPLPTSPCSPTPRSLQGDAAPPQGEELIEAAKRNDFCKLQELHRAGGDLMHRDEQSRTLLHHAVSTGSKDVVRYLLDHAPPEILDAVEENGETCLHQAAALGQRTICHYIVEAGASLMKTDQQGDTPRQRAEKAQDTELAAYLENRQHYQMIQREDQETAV

Compound: CCCCCCCC/C=C\CCCCCCCC(=O)OCC(O)COC(=O)CCCCCCC/C=C\CCCCCCCC [1,3-Dioleoyl-sn-glycerol]
nmol phosphatidic acid/mg/h (DAG substrate specificity of DGK.zeta.) [1]: 110 ± 8 nmol phosphatidic acid/mg/h

Compound: Cc1nc2sccn2c(=O)c1CCN1CCC(=C(c2ccccc2)c2ccc(F)cc2)CC1 [R59022]
inhibition of DGKε activity [2]: approximately 11%

Compound: [Ca+2] [calcium]
effect of excess calcium on DGK.zeta. activity ([1]; 0.1-2 mm calcium added at start of reaction): no increase in activity

Compound: CCCCCCCC/C=C\CCCCCCCC(=O)O[C@@H](CO)COC(=O)CCCCCCCCCCCCCCC [1-Palmitoyl-2-oleoyl-sn-glycerol]
nmol phosphatidic acid/mg/h (DAG substrate specificity of DGK.zeta.) [1]: 805 ± 8 nmol phosphatidic acid/mg/h

Compound: CCCCCCCCCC(=O)OC[C@H](CO)OC(=O)CCCCCCCCC [1,2-Dicapryl-sn-glycerol]
nmol phosphatidic acid/mg/h (DAG substrate specificity of DGK.zeta.) [1]: 1440 ± 42 nmol phosphatidic acid/mg/h

Compound: DGK.zeta.: human diacylglycerol kinase zeta, 928-amino acid protein (SEQ ID NO: 4)
DGK activity ([1]; 1,2-dicapryl-sn-glycerol substrate, typical experiment, FIG. 21): 7.5 nmol/mg/min
increase in DGK activity compared to vector-transfected cells ([1]; 1,2-dioleoyl-sn-glycerol substrate, FIG. 7): 267 fold
catalytic activity ([4]; native vs ankyrin repeat-deleted (FLAG-tagged) DGK.zeta.): 1764 nmol PA/mg/hr
DGK.zeta. activity ([4]; native vs zinc finger deletion mutants, Table II): 243 nmol PA/mg/hr
Relative activity ([4]; relative to native DGK.zeta. = 100, Table II): 100

Compound: CCCCC/C=C\C/C=C\C/C=C\C/C=C\CCCC(=O)O[C@@H](CO)COC(=O)CCCCCCCCCCCCCCCCC [1-Stearoyl-2-arachidonyl-sn-glycerol]
nmol phosphatidic acid/mg/h (DAG substrate specificity of DGK.zeta.) [1]: 1106 ± 34 nmol phosphatidic acid/mg/h

Compound: O=c1c2ccccc2[nH]c(=S)n1CCN1CCC(=C(c2ccc(F)cc2)c2ccc(F)cc2)CC1 [R59949]
inhibition of DGKε activity [2]: ~41%
activity at 100 µM ([1]; 100 μm R59949, read-out: DGK.zeta. activity in presence of inhibitor): 94%
DAG kinase activity of DGK.zeta.-transfected cells in presence of inhibitor ([1]; summary statement): not altered

Compound: CCCCCCCC/C=C\CCCCCCCC(=O)OC[C@H](CO)OC(=O)CCCCCCC/C=C\CCCCCCCC [1,2-Dioleoyl-sn-glycerol]
nmol phosphatidic acid/mg/h (DAG substrate specificity of DGK.zeta.) [1]: 1021 ± 9 nmol phosphatidic acid/mg/h

Further lines, results first:

nmol phosphatidic acid/mg/h (DAG substrate specificity of DGK.zeta.) [1]: 856 ± 35 nmol phosphatidic acid/mg/h
Compound: CCCCCCCC/C=C\CCCCCCCC(=O)OC[C@H](CO)OC(=O)CCCCCCCCCCCCCCC [1-Oleoyl-2-palmitoyl-sn-glycerol]

nmol phosphatidic acid/mg/h (DAG substrate specificity of DGK.zeta.) [1]: 801 ± 13 nmol phosphatidic acid/mg/h
Compound: CCCCCCCC/C=C\CCCCCCCC(=O)O[C@@H](CO)COC(=O)CCCCCCCCCCCCCCCCC [1-Stearoyl-2-oleoyl-sn-glycerol]

effect of increased phosphatidylserine concentration on DGKε activity ([2]; additional 3.5 mm phosphatidylserine added to reaction mixture): only slightly increased
Compound: phosphatidylserine

Km ([3]; listed as native peptide): ~0.5 µM
Km [3]: 0.5 µM
Hill constant ([3]; phosphorylation by PKM): 0.7
Compound: KASKKKKRASFKRKSSKK [DGK peptide, 18 amino acid peptide corresponding to residues 256-273 of DGK.zeta]
